How the values were obtained:
[1] = Solvent solubility test; type: physicochemical; design: key: A: Soluble; B: Soluble, but undissolved residue was visually confirmed; C: Insoluble; conditions: 3% by mass, stood overnight at room temperature (15 to 25° C.), visually observed; for Solubility in Dioxane: 1,4-dioxane; for Solubility in IPA: isopropanol; for Solubility in MEK: methyl ethyl ketone; for Solubility in MIBK: methyl isobutyl ketone; for Solubility in THF: tetrahydrofuran
Method: (Solvent Solubility Test)
For each sample and solvent, a sample and a solvent shown in Table 1 below were mixed in a concentration of 3% by mass, and a mixture was shaken by hand for about 10 minutes, and then allowed to stand overnight at a room temperature (temperature of 15 to 25° C.). After that, the solubility of the sample was visually observed and evaluated according to the following criteria. • A: Soluble • B: Soluble, but undissolved residue was visually confirmed • C: Insoluble (Flexural Test)
The results of the solubility test of the fluorene derivatives obtained in Examples 1 to 3 and Comparative Example 1 are shown in Table 1. In Table 1, IPA represents isopropanol, MEK represents methyl ethyl ketone, MIBK represents methyl isobutyl ketone, dioxane represents 1,4-dioxane, and THF represents tetrahydrofuran. As NIPAM-FL, the one prepared in Example 3A was used.

[2] = 5% mass reduction temperature (TG-DTA); type: physicochemical; conditions: nitrogen atmosphere, 50 to 400° C., heating rate 10° C./min
Method: (5% Mass Reduction Temperature)
The temperature, at which the mass of the sample is reduced by 5% by mass, was measured using a Thermogravimeter-Differential Thermal Analyzer (TG-DTA) (manufactured by PerkinElmer, Inc., “TGA-4000”) in a nitrogen atmosphere, under the condition of a measurement temperature range of 50 to 400° C. with a heating rate of 10° C./min.

| SMILES | Solubility in Dioxane [1] | Solubility in Acetone [1] | Solubility in Chloroform [1] | Solubility in Ethanol [1] | Solubility in Ethyl acetate [1] | Solubility in Hexane [1] | Solubility in Methanol [1] | Solubility in Toluene [1] | Solubility in Water [1] | Solubility in IPA [1] | Solubility in MEK [1] | Solubility in MIBK [1] | Solubility in THF [1] | 5% mass reduction temperature [2] |
| --- | --- | --- | --- | --- | --- | --- | --- | --- | --- | --- | --- | --- | --- | --- |
| NC(=O)CCC1(CCC(N)=O)c2ccccc2-c2ccccc21 [AAD-FL, 9,9-di-(β-carbamoyl-ethyl)fluorene, reference compound] | C | C | C | C | C | C | C | C | C | C | C | B | C | 320 °C |
| CCN(CC)C(=O)CCC1(CCC(=O)N(CC)CC)c2ccccc2-c2ccccc21 [DEAA-FL, 9,9-bis[2-(N,N-diethylcarbamoyl)ethyl]fluorene] | A | A | A | A | A | C | A | A | C | A | A | A | A | 294 °C |
| CC(C)NC(=O)CCC1(CCC(=O)NC(C)C)c2ccccc2-c2ccccc21 [NIPAM-FL, 9,9-bis[2-(N-isopropylcarbamoyl)ethyl]fluorene] | C | C | C | C | C | C | A | C | C | C | C | B | C | 257 °C |
| CN(C)C(=O)CCC1(CCC(=O)N(C)C)c2ccccc2-c2ccccc21 [DMAA-FL, 9,9-bis[2-(N,N-dimethylcarbamoyl)ethyl]fluorene] | C | C | A | A | C | C | A | C | C | C | C | A | A | 318 °C |

— US12415777B2, “Fluorene derivative, and production method and use for same” (Osaka Gas Chemicals Co., Ltd., priority 2020, dated 2025)
